Molecules are shown by their SMILES. ≈ marks a conversion by molar mass, not a printed value. Where two headings read alike, the source gives them in different places. Some results are limits rather than exact numbers.

Holding throughout (format): cell-based
Test [1] concerns Streptococcus pyogenes 1079. The test is described as follows: MIC, microtiter broth dilution (NCCLS M100-S14), S. pyogenes 1079 (ermB). The method in brief: (§1)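 Where available, resistant strains were tested alongside the susceptible parent they derive from. The MIC, determined by tray-based broth dilution and NCCLS M100-S14 interpretation, served as the comparison value.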
A general note: Broth dilution looks for growth in wells or tubes with falling amounts of substance.

Test [2] deals with Haemophilus influenzae 1218. The test is described as follows: MIC, microtiter broth dilution (NCCLS M100-S14), H. influenzae 1218 (susceptible). The essentials: as §1
In test [3] the test system is Streptococcus pneumoniae 1016. Nature of the test: MIC, microtiter broth dilution (NCCLS M100-S14), S. pneumoniae 1016 (susceptible). The essentials:
as §1

The subject of test [4] is Streptococcus pneumoniae 1095. Conditions: microtiter broth dilution. The method in brief:
as §1

The test system of test [5] is Streptococcus pneumoniae 1175. Conditions: microtiter broth dilution. The essentials: as §1
[6] abbreviates: H. influenzae 1218 (susceptible).
[7] abbreviates: S. pneumoniae 1016 (susceptible).

Turning to `CCC1OC(=O)C(C)C(=O)C(C)C(OC2OC(C)CC(N(C)C)C2O)C(C)(OC)CC(C)C(=O)C(C)C2N(C3CN(S(=O)(=O)c4ccc(-n5ccnc5)c(C)c4)C3)C(=O)OC12C` (stereo not shown) [Example 3.53, 4-(1H-imidazol-1-yl)-3-methylbenzenesulfonyl], in test [1] (Streptococcus pyogenes 1079), the “MIC S. pyogenes 1079” value came to 64 µg/mL (≈ 72.1 µM). For the same compound, in test [2] (Haemophilus influenzae 1218), the “MIC H. influenzae 1218” value is 4 µg/mL (≈ 4.5 µM). For the same compound, the “MIC S. pneumo. 1016” value in test [3] (Streptococcus pneumoniae 1016) is <0.06 µg/mL. Moreover, in test [4] (Streptococcus pneumoniae 1095), the “MIC S. pneumo. 1095” value is <0.06 µg/mL. For the same compound, the “MIC S. pneumo. 1175” value in test [5] (Streptococcus pneumoniae 1175) came to 0.25 µg/mL (≈ 0.282 µM).

`CCC1OC(=O)C(C)C(=O)C(C)C(OC2OC(C)CC(N(C)C)C2O)C(C)(OC)CC(C)C(=O)C(C)C2N(CC3CCCN3C(=O)c3cccc4ncccc34)C(=O)OC12C` [Example 12.11, 3-descladinosyl-11,12-dideoxy-6-O-methyl-3-oxo-12,11-(oxycarbonyl-((1-(quinoline-5-carbonyl)-(S)pyrrolidin-2-yl)-methyl)-imino)-erythromycin A]: the “MIC S. pyogenes 1079” value in test [1] (S. pyogenes 1079 (ermB)) is >64.00 µg/mL. The “MIC H. influenzae 1218” value in test [2] (setting [6]) was 8 µg/mL (≈ 9.4 µM). Moreover, in test [3] (setting [7]), the “MIC S. pneumo. 1016” value is <0.06 µg/mL. In test [4] (S. pneumoniae 1095 (ermB)), the “MIC S. pneumo. 1095” value was determined as 0.5 µg/mL (≈ 0.588 µM). The “MIC S. pneumo. 1175” value in test [5] (S. pneumoniae 1175 (mefA)) worked out at 1 µg/mL (≈ 1.18 µM).

With `CCC1OC(=O)C(C)C(=O)C(C)C(OC2OC(C)CC(N(C)C)C2O)C(C)(OC)CC(C)C(=O)C(C)C2N(CC3CCN(C(=O)c4cnc5ccccc5n4)C3)C(=O)OC12C` (stereo not shown) [13.13], the “MIC S. pyogenes 1079” value in test [1] (S. pyogenes 1079 (ermB)) was >64.00 µg/mL. Also, in test [2] (setting [6]), the “MIC H. influenzae 1218” value was 16 µg/mL (≈ 18.8 µM). Also, in test [3] (setting [7]), the “MIC S. pneumo. 1016” value was <0.06 µg/mL. Further, in test [4] (S. pneumoniae 1095 (ermB)), the “MIC S. pneumo. 1095” value was >64.00 µg/mL. The “MIC S. pneumo. 1175” value in test [5] (S. pneumoniae 1175 (mefA)) was determined as 0.5 µg/mL (≈ 0.587 µM).

Turning to `CCC1OC(=O)C(C)C(=O)C(C)C(OC2OC(C)CC(N(C)C)C2O)C(C)(OC)CC(C)C(=O)C(C)C2N(CC3CCCN3C(=O)c3ccc4ccccc4n3)C(=O)OC12C` (stereo not shown) [10.08], the “MIC S. pyogenes 1079” value in test [1] (S. pyogenes 1079 (ermB)) is >64.00 µg/mL. The “MIC H. influenzae 1218” value in test [2] (setting [6]) was determined as 2 µg/mL (≈ 2.35 µM). The “MIC S. pneumo. 1016” value in test [3] (setting [7]) is <0.06 µg/mL. In test [4] (S. pneumoniae 1095 (ermB)), the “MIC S. pneumo. 1095” value is <0.06 µg/mL. Moreover, in test [5] (S. pneumoniae 1175 (mefA)), the “MIC S. pneumo. 1175” value is 2 µg/mL (≈ 2.35 µM).

For the compound `CC[C@H]1OC(=O)[C@H](C)[C@@H](OC(=O)N2CCCC2)[C@H](C)[C@@H](O[C@@H]2O[C@H](C)C[C@H](N(C)C)[C@H]2O)[C@](C)(OC)C[C@@H](C)C(=O)[C@H](C)[C@H]2N(CC3CN(C(=O)c4cccc5cccnc45)C3)C(=O)O[C@]12C` [Example 5.07, 2-R^2: quinoline-8-carboxyl; R^#: pyrrolidin-1-yl], in test [1] (Streptococcus pyogenes 1079), the “MIC S. pyogenes 1079” value worked out at 16 µg/mL (≈ 17.1 µM). In addition, the “MIC H. influenzae 1218” value in test [2] (Haemophilus influenzae 1218) is 4 µg/mL (≈ 4.27 µM). For the same compound, in test [3] (Streptococcus pneumoniae 1016), the “MIC S. pneumo. 1016” value is <0.06 µg/mL. Moreover, in test [4] (Streptococcus pneumoniae 1095), the “MIC S. pneumo. 1095” value was found to be 0.25 µg/mL (≈ 0.267 µM). In addition, the “MIC S. pneumo. 1175” value in test [5] (Streptococcus pneumoniae 1175) was <0.06 µg/mL.

With `CCC1OC(=O)C(C)C(=O)C(C)C(OC2OC(C)CC(N(C)C)C2O)C(C)(OC)CC(C)C(=O)C(C)C2N(CC3CCN(Cc4c[nH]nn4)C3)C(=O)OC12C` (stereo not shown) [13.07], in test [1] (S. pyogenes 1079 (ermB)), the “MIC S. pyogenes 1079” value was >64.00 µg/mL. Moreover, the “MIC H. influenzae 1218” value in test [2] (setting [6]) was determined as 2 µg/mL (≈ 2.57 µM). Moreover, the “MIC S. pneumo. 1016” value in test [3] (setting [7]) is <0.06 µg/mL. Moreover, the “MIC S. pneumo. 1095” value in test [4] (S. pneumoniae 1095 (ermB)) was >64.00 µg/mL. Further, the “MIC S. pneumo. 1175” value in test [5] (S. pneumoniae 1175 (mefA)) came out at 4 µg/mL (≈ 5.15 µM).

As to `CCC1OC(=O)C(C)C(=O)C(C)C(OC2OC(C)CC(N(C)C)C2O)C(C)(OC)CC(C)C(=O)C(C)C2N(C3CN(Cc4c(OC)ccc5ccccc45)C3)C(=O)OC12C` (stereo not shown) [Example 1.86, 3-descladinosyl-11,12-dideoxy-6-O-methyl-3-oxo-12,11-(oxycarbonyl-(1-(2-methoxynaphthalene-1-methyl)-azetidin-3-yl)-imino)-erythromycin A], the “MIC S. pyogenes 1079” value in test [1] (Streptococcus pyogenes 1079) was 1 µg/mL (≈ 1.19 µM). Further, the “MIC H. influenzae 1218” value in test [2] (Haemophilus influenzae 1218) was found to be 1 µg/mL (≈ 1.19 µM). Also, the “MIC S. pneumo. 1016” value in test [3] (Streptococcus pneumoniae 1016) is <0.063 µg/mL. Besides, the “MIC S. pneumo. 1095” value in test [4] (Streptococcus pneumoniae 1095) stood at 0.125 µg/mL (≈ 0.149 µM). The “MIC S. pneumo. 1175” value in test [5] (Streptococcus pneumoniae 1175) is <0.063 µg/mL.

For the compound `CCC1OC(=O)C(C)C(=O)C(C)C(OC2OC(C)CC(N(C)C)C2O)C(C)(OC)CC(C)C(=O)C(C)C2N(CC3CCN(Cc4ccc(-c5ccccn5)cc4)CC3)C(=O)OC12C` (stereo not shown) [15.07], the “MIC S. pyogenes 1079” value in test [1] (S. pyogenes 1079 (ermB)) was >64.00 µg/mL. Further, the “MIC H. influenzae 1218” value in test [2] (setting [6]) was 32 µg/mL (≈ 36.5 µM). The “MIC S. pneumo. 1016” value in test [3] (setting [7]) is <0.06 µg/mL. Besides, in test [4] (S. pneumoniae 1095 (ermB)), the “MIC S. pneumo. 1095” value is >64.00 µg/mL. Further, the “MIC S. pneumo. 1175” value in test [5] (S. pneumoniae 1175 (mefA)) came to 1 µg/mL (≈ 1.14 µM).

These data come from patent US7462600B2, “Macrolides” (Pfizer Inc, priority 2004, dated 2008).
